This is an account of results in patent publication US6693116B2, “Adenosine receptor ligands” (Hoffmann-La Roche Inc., priority 2001, dated 2004).

The structures appear in SMILES notation.

T1 sequence (P29274 whole entry): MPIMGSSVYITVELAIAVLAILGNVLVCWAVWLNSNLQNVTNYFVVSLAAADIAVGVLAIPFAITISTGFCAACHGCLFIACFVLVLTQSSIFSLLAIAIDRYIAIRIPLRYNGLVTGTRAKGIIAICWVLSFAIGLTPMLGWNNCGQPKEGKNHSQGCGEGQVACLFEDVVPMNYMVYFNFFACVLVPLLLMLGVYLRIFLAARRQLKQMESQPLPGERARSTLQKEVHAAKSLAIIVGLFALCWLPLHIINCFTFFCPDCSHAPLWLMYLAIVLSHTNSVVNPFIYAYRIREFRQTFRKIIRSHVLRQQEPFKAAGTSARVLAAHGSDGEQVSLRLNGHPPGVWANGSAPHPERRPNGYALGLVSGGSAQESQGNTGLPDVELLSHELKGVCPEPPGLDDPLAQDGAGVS

The test concerns the target T1, human adenosine A2A receptor (Homo sapiens, UniProt P29274).
T1 construct: expressed in transfected cells; host or cells: CHO cells, Semliki Forest virus expression system; membrane preparation
The test is described as follows: [3H]-SCH-58261 binding assay, human adenosine A2A receptor. The following applies: membranes of CHO cells recombinantly expressing the human A2A receptor, Ki from IC50 by Cheng-Prussoff equation, read-out: HA2A KI. Here is the method: Human Adenosine A2A Receptor
The human adenosine A2A receptor was recombinantly expressed in Chinese hamster ovary (CHO) cells using the semliki forest virus expression system. Cells were harvested, washed twice by centrifugation, homogenized and again washed by centrifugation. The final washed membrane pellet was suspended in a Tris (50 mM) buffer containing 120 mM NaCl, 5 mM KCl, 2 mM CaCl2 and 10 mM MgCl2 (pH 7.4) (buffer A). The [^3H]-SCH-58261 (Dionisotti et al., 1997, Br. J. Pharmacol. 121, 353) binding assay was carried out in 96-well plates in the presence of 2.5 μg of membrane protein, 0.5 mg of Ysi-poly-l-lysine SPA beads and 0.1 U adenosine deaminase in a final volume of 200 μl of buffer A. Non-specific binding was defined using xanthine amine congener (XAC; 2 μM). Compounds were tested at 10 concentrations from 10 μM to 0.3 nM. All assays were conducted in duplicate and repeated at least twice. Assay plates were incubated for 1 hour at room temperature before centrifugation and then bound ligand was determined using a Packard Topcount scintillation counter. IC50 values were calculated using a non-linear curve fitting program and Ki values calculated using the Cheng-Prussoff equation.
In accordance with the invention, the compounds of formula I have a high affinity toward the A2A receptor. The table below (after Example 10) describes specific values of prepared compounds.
As to `COc1cccc(-c2ccc(OC)n3nc(NC(=O)c4ccc(F)cc4)nc23)c1` [Example 19, 4-Fluoro-N-[5-methoxy-8-(3-methoxy-phenyl)-[1,2,4]triazolo[1,5-a]pyridin-2-yl]-benzamide], the Ki was 748 nM. To `COc1ccc(-c2ccccc2)c2nc(NC(=O)c3cccc(C)c3)nn12` [Example 17, N-(5-Methoxy-8-phenyl-[1,2,4]triazolo[1,5-a]pyridin-2-yl)-3-methyl-benzamide] belongs 984 nM. Take `COc1ccc(-c2ccccc2)c2nc(NC(=O)c3ccc(C(F)(F)F)cc3)nn12` [Example 11, N-(5-Methoxy-8-phenyl-[1,2,4]triazolo[1,5-a]pyridin-2-yl)-4-trifluoromethyl-benzamide]: the Ki amounted to 884 nM. To `COc1ccc(-c2ccc(F)cc2)c2nc(NC(=O)c3ccccc3F)nn12` [Example 20, 2-Fluoro-N-[8-(4-fluoro-phenyl)-5-methoxy-[1,2,4]triazolo[1,5-a]pyridin-2-yl]-benzamide] belongs 784 nM; to `COc1cccc(-c2ccc(OC)n3nc(NC(=O)c4ccc(Br)cc4)nc23)c1` [Example 13, 4-Bromo-N-[5-methoxy-8-(3-methoxy-phenyl)-[1,2,4]triazolo[1,5-a]pyridin-2-yl]-benzamide], 480 nM; to `COc1ccc(-c2cccc(F)c2)c2nc(NC(=O)c3ccc(Br)o3)nn12` [Example 15, 5-Bromo-furan-2-carboxylic acid [8-(3-fluoro-phenyl)-5-methoxy-[1,2,4]triazolo[1,5-a]pyridin-2-yl]-amide], 572 nM. Take `COc1ccc(-c2ccc(F)cc2)c2nc(NC(=O)c3ccc(Br)cc3)nn12` [Example 12, 4-Bromo-N-[8-(4-fluoro-phenyl)-5-methoxy-[1,2,4]triazolo[1,5-a]pyridin-2-yl]-benzamide]: the Ki was 776 nM. `COc1ccc(-c2ccc(F)cc2)c2nc(NC(=O)c3ccc(F)cc3)nn12` [Example 18, 4-Fluoro-N-[8-(4-fluoro-phenyl)-5-methoxy-[1,2,4]triazolo[1,5-a]pyridin-2-yl]-benzamide]: the Ki was found to be 664 nM.

On to `COc1ccc(Br)c(C(=O)Nc2nc3c(-c4cccc(F)c4)ccc(OC)n3n2)c1` [Example 14, 2-Bromo-N-[8-(3-fluoro-phenyl)-5-methoxy-[1,2,4]triazolo[1,5-a]pyridin-2-yl]-5-methoxy-benzamide], for which the Ki came out at 908 nM. Turning to `COc1cccc(-c2ccc(OC)n3nc(NC(=O)c4cccs4)nc23)c1` [Example 21, Thiophene-2-carboxylic acid[5-methoxy-8-(3-methoxy-phenyl)-[1,2,4]thiazolo[1,5-a]pyridin-2-yl]-amide], the Ki amounted to 516 nM. On to `COc1cccc(-c2ccc(OC)n3nc(NC(=O)c4ccc(Br)o4)nc23)c1` [Example 16, 5-Bromo-furan-2-carboxylic acid [5-methoxy-8-(3-methoxy-phenyl)-[1,2,4]triazolo[1,5-a]pyridin-2-yl]-amide], for which the Ki was 560 nM.
